In patent US10781229B2, “Tris- or neopentyl glycol-based amphiphiles and uses thereof” (Industry-University Cooperation Foundation Hanyang …, priority 2015, dated 2020):

Legend:
LeuT E192C^TMR = LeuT E192C^TMR (Aquifex aeolicus, UniProt O67854, E192C); assay: Site-directed fluorescence (iodide) quenching of LeuT E192C-TMR, Stern-Volmer analysis; assay type: biochemical
Description: A principle of this experiment is as follows: A cysteine residue was inserted into a 192th LeuT site (E192C), followed by coupling with a thiol-reactive fluorophore (tetramethylrhodamine-5-maleimide, TMR). The prepared LeuT E192C^TMR, as TMR-coupled LeuT, is an excellent system to sensitively monitor protein structure change in response to ligand coupling. […] Due to such change, TMR fluorescence molecules exposed to an aqueous solution become closer to iodide (I^−), as a quencher dissolved in water, whereby strong fluorescence quenching is caused. TMR quenching intensity by leucine coupling may be represented by Stern-Volmer plotting and thus structural flexibility of a protein may be directly measured. Ligand bindability of the TMR-labeled transporter was measured using SPA while increasing the amount of [^3H]leucine.
In particular, structure, expression, purification, and fluorescence labeling were performed according to the following methods. In accordance with a method disclosed in a paper published by C. B. Billesbolle, et al. (J. Biol. Chem. 2015, 290, 26725-26738), a leucine transporter mutant (LeuT E192C^TMR) was produced and purification and labeling were carried out. In summary, a residue of the E192 was mutated with cysteine using QuikChange (Agilent Technologies) such that fluorescence coupling was accomplished by maleimide labeling. The LeuT mutant was expressed in E. coli C41 (DE3). A membrane of DE3 was disrupted and LeuT was solubilized with 1% (w/v) DDM. Subsequently, LeuT solubilized with the amphipathic molecule was fixed to a Chelating Sepharose Fast Flow resin (GE Healthcare, Little Chalfont, UK), followed by washing with tetramethylrhodamine-5-maleimide (TMR, Life Technologies, Carlsbad, Calif., USA) at 4° C. for 16 hours. Subsequently, LeuT was eluted with a buffer containing 300 mM imidazole, 20 mM Tris-HCl (pH 8.0), 1 mM NaCl, 199 mM KCl, and 0.05% DDM.
Fluorescence spectroscopy was carried out according to the following method. A fluorescence-based experiment was carried out by diluting 0.5 μg ml^−1 of fluorescence-labeled LeuT with buffer A supplemented with CMC+0.04% by weight of DDM, MNG-3 or NDT-C11. Leucine was separately added to specimen aliquots of LeuT for each concentration and incubated for one hour in a room temperature shaker. Steady-state fluorescence intensities were recorded with a FluoroMax4 (Horiba Scientific, Edison, N.J., USA) at λem=572 nm and excitation source at λex=552 nm at 25° C. Quencher-titration was carried out by successive additions of small specimen aliquots containing 1 M KI into buffer A supplemented with 10 mM Na2S2O3. Fluorescence intensities (F) were corrected for sample dilution and normalized to the initial intensity (F0) of a sample. All data was analyzed by linear-(Stern-Volmer plot) or nonlinear regression in GraphPad Prism 6.0 (GraphPad Software). The degree of iodide (I^−) accessibility was obtained from the following Stern-Volmer equation: F0/F=1+Ksv×[Q], where F0/F is normalized fluorescence quenching, Ksv is a Stern-Volmer constant, and [Q] is quencher concentration. When means are calculated as a log, the means are shown as pIC50 and the [s.e.m. interval] from pIC50±s.e.m.
Values of radioligand binding constants were calculated through SPA saturation binding experiments. Values of iodide quenching-response constants and ΔKSV were calculated from a site-directed fluorescence quenching spectroscopy. The affinity (Kd) is shown as means±s.e.m and ΔKSV is shown as means [s.e.m. interval]. All data is shown as means of three to four independent experiments.

[1] = Hydrodynamic radius and size distribution of micelles by dynamic light scattering (DLS); assay type: physicochemical
Description: A method of measuring the radius of a micelle is not specifically limited and may be any method generally known in the art. For example, the radius may be measured by a dynamic light scattering (DLS) experiment.
In particular, critical micellar concentrations (CMCs) were measured using hydrophobic fluorescence staining and diphenylhexatriene (DPH), and hydrodynamic radii (Rh) of micelles formed of each material were measured by a dynamic light scattering (DLS) experiment. Measured results are compared to values of DDM as an existing amphipathic molecule (detergent).
Meanwhile, size distributions of the micelles formed of TDTs and NDTs were measured using DLS. Results are illustrated in FIG. 5. TDTs or NDTs were respectively used in an amount of 0.5% by weight. As a result, micelles of TDTs or NDTs were measured as forming a single community.

[2] = test system: leucine transporter (LeuT); assay: LeuT stability by [3H]-Leu scintillation proximity assay (SPA); assay type: biochemical, Aquifex aeolicus; details: CMC+0.2% by weight, room temperature
Description: Experiments to measure the structural stability of a leucine transporter (LeuT) protein by TDTs or NDTs were conducted. LeuT protein activity was measured by scintillation proximity assay (SPA) utilizing [^3H]-Leu as a ligand. The concentration of TDTs, NDTs, or DDM was (a) CMC+0.04% by weight, or (b) CMC+[…].
In particular, the LeuT stability measurement experiments were conducted according to the following methods. Depending upon the results of UapA and MelB, only TDT-C11, TDT-C12, NDT-C10, NDT-C11 and NDT-C12 among the amphipathic molecules according to the present invention were selectively used. In accordance with a method disclosed in a paper published by G. Deckert, et al. (Nature 1998, 392, 353-358), a wild-type leucine transporter (LeuT) was purified from Aquifex aeolicus. LeuT is expressed in E. coli C41 (DE3) transformed with pET16b encoding a C-terminal 8×His-tagged transporter (the expression plasmid was provided by Dr E. Gouaux, Vollum Institute, Portland, Oreg., USA). In summary, the […] protein was isolated and solubilized with 1.0% by weight of DDM, followed by binding the protein to a Ni^2+-NTA resin (Life Technologies, Denmark) and eluting the same with 20 mM Tris-HCl (pH 8.0), 1 mM NaCl, 199 mM KCl, 0.05% DDM, and 300 mM imidazole. Next, about 1.5 mg/ml of a protein stock was 10-fold diluted with a buffer in which DDM and imidazole are absent, but TDTs, NDTs, or DDM (control) is supplemented such that a final concentration becomes CMC+0.04% by weight or CMC+0.2% by weight. Protein samples were stored at room temperature and centrifuged at a predetermined time. To evaluate protein activity, [^3H]-Leu coupling was measured using scintillation proximity assay (SPA) (M. Quick et al., Proc. Natl, Acad. Sci. U.S.A. 2007, 104, 3603-3608). 5 μL of each protein sample dissolved in a buffer that contained 200 mM NaCl and each test compound was analyzed. SPA reaction was carried out in the presence of 20 nM [^3H]-Leu and copper chelate (His-Tag) YSi beads (both purchased from PerkinElmer, Denmark). [^3H]-Leu coupling was measured by means of a MicroBeta liquid scintillation counter (PerkinElmer).

[3] = target: T1, melibiose permease (MelB), MelBSt (Salmonella typhimurium, UniProt P30878); assay: MelB extraction efficiency and stability by SDS-PAGE and western immunoblotting; details: 1.5% by weight; for MelB protein solubilization effect versus temperature: 0 to 45° C. and above; for MelB protein extraction efficiency from membrane: 0° C.
T1 construct: made in house; host or cells: 'Salmonella typhimurium DW2 cell (melB and lacZY)', plasmid pK95AHB/WT MelBSt/CH10
Description: Experiments to measure the extraction efficiency and structural stability of a Salmonella typhimurium melibiose permease (MelB) protein by TDTs or NDTs were conducted. The MelB protein was extracted using TDTs, NDTs, or DDM and then the amounts and structures of extracted proteins were quantitatively analyzed by SDS-PAGE and western immunoblotting. The concentrations of the used amphipathic molecules were 1.5% by weight. Protein extraction was carried out at four temperatures (0, 45, 55 or 65° C.) for 90 minutes to simultaneously evaluate the protein extraction efficiency and stabilization ability of the amphipathic molecules.
In particular, in accordance with a method disclosed in a paper (P. S. Chae, et al., Chemistry. 2013, 19, 15645-15651) published by the present inventors, a protein (MelBSt) was produced using a pK95AHB/WT MelBSt/CH10 plasmid and a Salmonella typhimurium DW2 cell (melB and lacZY) to encode wild-type MelB having a 10-His tag at a C-terminal. In accordance with a method disclosed in a paper (Nat. Commun. 2014, 5, 3009) published by A. S. Ethayathulla, et al., cell proliferation and membrane preparation was carried out. Protein analysis was performed using a Micro BCA kit (Thermo Scientific, Rockford, Ill.). So as to measure the solubilization/stability of MelBSt, a membrane sample including MelBSt (final protein concentration of 10 mg/mL) was mixed with a solubilization buffer (20 mM sodium phosphate, pH 7.5, 200 mM NaCl, 10% glycerol, and 20 mM melibiose) and 1.5% (w/v) DDM, TDTs or NDTs. An extracted product was incubated at four temperatures (0, 45, 55 and 65° C.) for 90 minutes. Ultracentrifugation was carried out for 45 minutes at 4° C. and 355,590 g by means of a Beckman Optima™ MAX ultracentrifuge and a TLA-100 rotor. Subsequently, 20 μg of a protein was separated by SDS-16% PAGE and then subjected to immunoblotting with a Penta-His-HRP antibody (Qiagen, Germantown, Md.).

T1 sequence (P30878 whole entry): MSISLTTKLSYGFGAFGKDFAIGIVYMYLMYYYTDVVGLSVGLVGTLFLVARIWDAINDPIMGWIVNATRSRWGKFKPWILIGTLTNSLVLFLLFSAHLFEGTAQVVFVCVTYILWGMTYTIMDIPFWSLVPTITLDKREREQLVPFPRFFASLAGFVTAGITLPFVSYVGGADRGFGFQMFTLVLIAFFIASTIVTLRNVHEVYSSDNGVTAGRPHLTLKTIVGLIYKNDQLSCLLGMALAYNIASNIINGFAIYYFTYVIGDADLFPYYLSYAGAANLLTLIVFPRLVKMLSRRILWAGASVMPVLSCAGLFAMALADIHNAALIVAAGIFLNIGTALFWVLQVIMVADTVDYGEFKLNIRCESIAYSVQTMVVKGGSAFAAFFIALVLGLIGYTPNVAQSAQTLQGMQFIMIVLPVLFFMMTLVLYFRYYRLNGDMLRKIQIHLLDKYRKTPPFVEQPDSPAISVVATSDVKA

CCCCCCCCCCC(CCCCCCCCCC)(CO[C@@H]1O[C@H](CO)[C@@H](O[C@H]2O[C@H](CO)[C@@H](O)[C@H](O)[C@H]2O)[C@H](O)[C@H]1O)CO[C@@H]1O[C@H](CO)[C@@H](O[C@H]2O[C@H](CO)[C@@H](O)[C@H](O)[C@H]2O)[C@H](O)[C@H]1O [MNG-3]
Structural fluidity of the LeuT protein (LeuT E192C^TMR; conclusion from ΔKsv): tends to greatly limit the structural fluidity
Δ KSV (LeuT E192C^TMR; leucine-induced change of iodide accessibility of TMR, CMC+0.04% by weight detergent, means [s.e.m. interval]): 0.4 M⁻¹

CCCCCCCCCC(CCCCCCCCC)COCC(CO[C@@H]1OC(CO)[C@@H](O)C(O)C1O)(CO[C@@H]1OC(CO)[C@@H](O)C(O)C1O)CO[C@@H]1OC(CO)[C@@H](O)C(O)C1O (stereo partly shown) [NDT-C9]
Rh (hydrodynamic radius of micelles) [1]: 3.1 ± 0.1 nm

CCCCCCCCCCC(CCCCCCCCCC)COCC(CO[C@@H]1OC(CO)[C@@H](O)C(O)C1O)(CO[C@@H]1OC(CO)[C@@H](O)C(O)C1O)CO[C@@H]1OC(CO)[C@@H](O)C(O)C1O (stereo partly shown) [NDT-C10]
Rh (hydrodynamic radius of micelles) [1]: 3.2 ± 0.1 nm
LeuT protein stabilization ability ([3H]-Leu binding) [2]: excellent

CCCCCCCCCCCCC(CCCCCCCCCCCC)COCC(CO[C@@H]1OC(CO)[C@@H](O)C(O)C1O)(CO[C@@H]1OC(CO)[C@@H](O)C(O)C1O)CO[C@@H]1OC(CO)[C@@H](O)C(O)C1O (stereo partly shown) [NDT-C12]
Rh (hydrodynamic radius of micelles) [1]: 3.8 ± 0.4 nm
MelB protein solubilization effect versus temperature [3]: increase with elevating temperature
MelB protein extraction efficiency from membrane ([3]; 90 minutes): Slightly decreased solubilization effects
LeuT protein stabilization ability ([3H]-Leu binding) [2]: excellent

CCCCCCCCCC(CCCCCCCCC)C(=O)NC(CO[C@@H]1OC(CO)[C@@H](O)C(O)C1O)(CO[C@@H]1OC(CO)[C@@H](O)C(O)C1O)CO[C@@H]1OC(CO)[C@@H](O)C(O)C1O (stereo partly shown) [TDT-C9]
Rh (hydrodynamic radius of micelles) [1]: 3.4 ± 0.4 nm

CCCCCCCCCCC(CCCCCCCCCC)C(=O)NC(CO[C@@H]1OC(CO)[C@@H](O)C(O)C1O)(CO[C@@H]1OC(CO)[C@@H](O)C(O)C1O)CO[C@@H]1OC(CO)[C@@H](O)C(O)C1O (stereo partly shown) [TDT-C10]
Rh (hydrodynamic radius of micelles) [1]: 4.5 ± 0.2 nm

CCCCCCCCCCCC(CCCCCCCCCCC)C(=O)NC(CO[C@@H]1OC(CO)[C@@H](O)C(O)C1O)(CO[C@@H]1OC(CO)[C@@H](O)C(O)C1O)CO[C@@H]1OC(CO)[C@@H](O)C(O)C1O (stereo partly shown) [TDT-C11]
Rh (hydrodynamic radius of micelles) [1]: 37 ± 8.0 nm
Amount of MelB protein dissolved ([3]; 55° C., 90 minutes): 65%

CCCCCCCCCCCCC(CCCCCCCCCCCC)C(=O)NC(CO[C@@H]1OC(CO)[C@@H](O)C(O)C1O)(CO[C@@H]1OC(CO)[C@@H](O)C(O)C1O)CO[C@@H]1OC(CO)[C@@H](O)C(O)C1O (stereo partly shown) [TDT-C12]
Rh (hydrodynamic radius of micelles) [1]: 53 ± 1.2 nm
MelB protein solubilization effect versus temperature [3]: increase with elevating temperature
MelB protein extraction efficiency from membrane ([3]; 90 minutes): Slightly decreased solubilization effects
